The results in this text go back to EP2150534B1, “ISOQUINOLINONE DERIVATIVES AS NK3 ANTAGONISTS” (H. Lundbeck A/S, priority 2007, dated 2008).

Assay [1] has as its target T1, human NK3 receptor (Homo sapiens, UniProt P29371).
T1 construct: expressed in transfected cells; membranes prepared from them
T1 sequence (P29371 1-465): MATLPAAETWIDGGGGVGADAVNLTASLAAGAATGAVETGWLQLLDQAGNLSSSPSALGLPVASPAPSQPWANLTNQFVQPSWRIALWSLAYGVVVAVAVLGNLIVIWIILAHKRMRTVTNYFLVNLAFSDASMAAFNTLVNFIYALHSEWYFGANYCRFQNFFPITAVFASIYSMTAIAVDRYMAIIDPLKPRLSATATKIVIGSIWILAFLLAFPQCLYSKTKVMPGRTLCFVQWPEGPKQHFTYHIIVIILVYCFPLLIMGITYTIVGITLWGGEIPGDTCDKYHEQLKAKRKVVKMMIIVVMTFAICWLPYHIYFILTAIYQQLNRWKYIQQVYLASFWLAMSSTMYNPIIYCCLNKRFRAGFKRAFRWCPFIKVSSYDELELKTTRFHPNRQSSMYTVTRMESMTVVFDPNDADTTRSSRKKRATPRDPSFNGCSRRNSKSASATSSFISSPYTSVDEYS
As to the kind of experiment: NK3 receptor binding assay (SPA-based competition binding with 125I-NKB, membranes of BHK cells). The method, then:
Membranepreparation: BHK cells stably expressing the human NK3 receptor were seeded in harvesting plates in Dulbeccos MEM containing GlutaMax (862 mg/l), 1 mM sodium pyruvate, 10% fetal calf serum, 1% Pen/Strep, I mg/ml G418 and were grown at 34 °C in a humidified atmosphere containing 10% CO2. To increase receptor expression, 10 µM trichotatin A was added to the media 24 hours before harvest of the cells at a confluency of app 90%. Prior to the harvesting, the cells were washed twice with PBS without Mg^2+ og Ca^2+ and subsequently scrapped of in 10 ml PBS pr harvesting plate. The cells suspension were centrifuged at 1500xG in three minutes before resuspension in 15 mM Tris-HCl pH 7,5 buffer containing 2 mM MgCl2; 0,3 mM EDTA and 1 mM EGTA (buffer A). The cell suspention was homogenised and subsequently centrifuged at 40000xG in 30 minutes. The membrane-pellet was resuspended in buffer A containing 250 mM sucrose, alliquoted and stored at - 80°C.
Affinity assay description: The assay was performed as a SPA-based competition-binding assay in a 50 mM Tris pH 7.4 assay buffer containing 120 mM NaCl, 3 mM MnCl2, 40 µg/ml bacitracin, 2 µg/ml Chymostatin, 1 µg/ml Phosphoramidon and 4 µg/ml Leupeptin. App 0.02 nM ^125I-NKB was mixed with test compounds before addition of 4 µg of the homogenised NK3 membrane preparation and 0,025 mg SPA beads in a total volume of 60 µl. The assay plate was subsequently under agitation incubated for 90 min at RT. The plate was centrifugated 10 minutes at 500xG and counted in a topcounter 5 minuttes pr well.
The non-specific binding constituted app 5 % of the total binding.
Data points were expressed in percent of the specific binding of ^125I-NKB and the IC50 values (concentration causing 50 percent inhibition of ^125I-NKB specific binding) were determined by non-linear regression analysis using a sigmoidal variable slope curve fitting. The dissociation constant (Ki) were calculated from the Cheng Prusoff equation (Ki = IG50/(1+(L/KD))), where the concentration of free radioligand L is approximated to the concentration of added ^125I-NKB in the assay (app 0,02 nM).
The KD of ^125I-NKB was determined to be 0,7 nM from three independent saturation assays each performed with duplicate determinations. Bmax was app 2 pmol/mg.

Assay [2] concerns the target T1, human NK3 receptor. The assay can be described thus: NK3 receptor efficacy and potency assay (FLIPR Calcium 4 assay, BHK cells; agonist and antagonist mode versus NKB). The format is cell-based. The following applies: read-out: Potency cIC50. The method, then:
BHK cells stably expressing the human NK3 receptor were seeded in 100 µl media in black walled clear-base 96-wells plates (Costar) aiming at a confluency of 95-100% at the day of assay. The assay was performed according to the FLIPR Calcium 4 Assay kit (Molecular Devices). At the day of the assay, the media was removed and the cells were washed once with the HBSS buffer (Hanks BSS buffer, pH 7,4 containing 20 mM Hepes) before 100 µl of a solution of the calcium assay reagent dissolved in the HBSS buffer containing 2,5 mM probinicid was added to the cells. The plates were incubated for 60 min at 34°C, 10% CO2 before use in the FLIPR for examination of fluorescence.
For efficacy and potency evaluation of compounds, these were diluted in HBSS buffer prior to test. For test of agonist activity, 25 µl of the diluted compound solution was added and the plate was analyzed for 5 minutes in the FLIPR. […] The plates were subsequently analyzed for 5 minutes before the assay was terminated. The maximal increase in fluorescence over background following each ligand addition was determined.

Setting [3] is: table of Example 10, affinity obtained as described in Example 9, read-out: Affinity Ki.

Where two headings read alike, the source gives them in different places.

On to `O=C(NC(c1cccc(F)c1)C1CC1)c1c(CN2CCN(CCc3ccccc3)CC2)n(-c2ccccc2)c(=O)c2ccccc12` (centres unmarked) [Example 2hq, 1-Oxo-3-(4-phenethyl-piperazin-1-ylmethyl)-2-phenyl-1,2-dihydro-isoquinoline-4-carboxylic acid [cyclopropyl-(3-fluoro-phenyl)-methyl]-amide], for which, on human NK3 receptor [1] (setting [3]), the Ki (as a rule, a measure of affinity in units of concentration, obtained from inhibition or displacement) came to 10 nM. Also, the IC50 at human NK3 receptor [2] was determined as 44 nM.
The matching figures for `CC[C@H](NC(=O)c1c(CN2CCC(O)(c3cccc(OC)c3)CC2)n(-c2cccc(F)c2)c(=O)c2ccccc12)c1ccccc1` [Example 2iy, 2-(3-Fluoro-phenyl)-3-[4-hydroxy-4-(3-methoxy-phenyl)-piperidin-1-ylmethyl]-1-oxo-1,2-dihydro-isoquinoline-4-carboxylic acid ((S)-1-phenyl-propyl)-amide]: 17 nM and 92 nM.
For `O=C(NC(c1cccc(F)c1)C1CC1)c1c(CN2CCC(CCN3CCOCC3)CC2)n(-c2ccccc2)c(=O)c2ccccc12` (centres unmarked) [Example 2hy, 3-[4-(2-Morpholin-4-yl-ethyl)-piperidin-1-ylmethyl]-1-oxo-2-phenyl-1,2-dihydro-isoquinoline-4-carboxylic acid [cyclopropyl-(3-fluoro-phenyl)-methyl]-amide], in that order: 8.8 nM and 63 nM.
For `CC[C@H](NC(=O)c1c(CNC(C)(C)C)n(-c2ccccc2)c(=O)c2ccccc12)c1ccccc1` [Example 2ec, 3-(tert-Butylamino-methyl)-1-oxo-2-phenyl-1,2-dihydro-isoquinoline-4-carboxylic acid ((S)-1-phenyl-propyl)-amide], in that order: 210 nM and 520 nM.
On to `Cc1c(C(=O)N[C@H](c2cccc(F)c2)C2CCC2)c2cccc(Cl)c2c(=O)n1-c1ccccc1` [Example 1bh, 8-Chloro-3-methyl-1-oxo-2-phenyl-1,2-dihydro-isoquinoline-4-carboxylic acid [(S)-cyclobutyl-(3-fluoro-phenyl)-methyl]-amide], for which, on human NK3 receptor [1] (setting [3]), the Ki is 21 nM. Moreover, the IC50 at human NK3 receptor [2] was 81 nM.
For `CC[C@H](NC(=O)c1c(CN2CCC(O)(c3cccc(OC)c3)CC2)n(-c2ccccc2)c(=O)c2ccccc12)c1ccccc1` [Example 2gt, 3-[4-Hydroxy-4-(3-methoxy-phenyl)-piperidin-1-ylmethyl]-1-oxo-2-phenyl-1,2-dihydro-isoquinoline-4-carboxylic acid ((S)-1-phenyl-propyl)-amide], in that order: 9.2 nM and 22 nM.
As for `CC(C)(C)N1CCC(Cc2c(C(=O)N[C@H](c3cccc(F)c3)C3CC3)c3cccc(Cl)c3c(=O)n2-c2ccccc2)CC1` [Example 8a, 3-(1-tert-Butyl-piperidin-4-ylmethyl)-8-chloro-1-oxo-2 phenyl-1,2-dihydro-isoquinoline-4-carboxylic acid [(S)-cyclopropyl-(3-fluoro-phenyl)-methyl]-amide], the Ki on human NK3 receptor [1] (setting [3]) came out at 7 nM. The IC50 on human NK3 receptor [2] was 9.9 nM.
For `CC(C)(C)N1CCN(Cc2c(C(=O)N[C@H](c3cccc(F)c3)C3CC3)c3cccc(F)c3c(=O)n2-c2ccccc2)CC1` [Example 2ll, 3-(4-tert-Butyl-piperazin-1-ylmethyl)-8-fluoro-1-oxo-2-phenyl-1,2-dihydro-isoquinoline-4-carboxylic acid [(S)-cyclopropyl-(3-fluoro-phenyl)-methyl]-amide], in that order: 7.9 nM and 6.3 nM.
For `CC[C@H](NC(=O)c1c(CN2CCN(c3ccc4ncccc4c3)CC2)n(-c2ccccc2)c(=O)c2ccccc12)c1ccccc1` [Example 2fm, 1-Oxo-2-phenyl-3-(4-quinolin-6-yl-piperazin-1-ylmethyl)-1,2-dihydro-isoquinoline-4-carboxylic acid ((S)-1-phenyl-propyl)-amide], in that order: 33 nM and 140 nM.
The matching figures for `CC[C@H](NC(=O)c1c(CN2CCCC2=O)n(-c2ccccc2)c(=O)c2c(Cl)cccc12)c1ccccc1` [Example 3b]: 32 nM and 47 nM.
In the case of `CC[C@H](NC(=O)c1c(CN2CCN(CCN3CCOCC3)CC2)n(-c2ccccc2)c(=O)c2ccccc12)c1ccccc1` [Example 2bm, 3-[4-(2-Morpholin-4-yl-ethyl)-piperazin-1-ylmethyl]-1-oxo-2-phenyl-1,2-dihydro-isoquinoline-4-carboxylic acid ((S)-1-phenyl-propyl)-amide], the inhibitory constant (Ki) on human NK3 receptor [1] (Ki for the NK3 receptor, table of Example 9, 125I-NKB competition binding, read-out: Ki) came to 8.2 nM; on human NK3 receptor [1] (setting [3]), 8.8 nM. Further, the IC50 at human NK3 receptor [2] is 14 nM.
For `Cc1c(C(=O)N[C@H](c2ccccc2)C2CCC2)c2cccc(Cl)c2c(=O)n1-c1ccccc1` [Example 1bn, 8-Chloro-3-methyl-1-oxo-2-phenyl-1,2-dihydro-isoquinoline-4-carboxylic acid ((S)cyclobutyl-phenyl-methyl)-amide], at human NK3 receptor [1] (setting [3]), the Ki was 23 nM. The IC50 on human NK3 receptor [2] amounted to 23 nM.
With `CC[C@H](NC(=O)c1c(CNCC2CC2)n(-c2ccccc2)c(=O)c2ccccc12)c1ccccc1` [Example 2e, 3-[(Cyclopropylmethyl-amino)-methyl]-1-oxo-2-phenyl-1,2-dihydro-isoquinoline-4-carboxylic acid ((S)-1-phenyl-propyl)-amide], the Ki on human NK3 receptor [1] (setting [3]) is 330 nM. The IC50 on human NK3 receptor [2] turned out to be 470 nM.
For the molecule `O=C(NC(c1cccc(F)c1)C1CC1)c1c(CN2CCN(CCN3CCCCC3)CC2)n(-c2ccccc2)c(=O)c2ccccc12` (centres unmarked) [Example 2hu, 1-Oxo-2-phenyl-3-[4-(2-piperidin-1-yl-ethyl)-piperazin-1-ylmethyl]-1,2-dihydro-isoquinoline-4-carboxylic acid [cyclopropyl-(3-fluoro-phenyl)-methyl]-amide], the Ki at human NK3 receptor [1] (setting [3]) came to 6.2 nM. The IC50 at human NK3 receptor [2] is 29 nM.
In the case of `CC[C@H](NC(=O)c1c(CN2CCN(CCN3CCCC3)CC2)n(-c2ccccc2)c(=O)c2ccccc12)c1ccccc1` [Example 2bq, 1-Oxo-2-phenyl-3-[4-(2-pyrrolidin-1-yl-ethyl)-pipcrazin-1-ylmethyl]-1,2-dihydro-isoquinolinc-4-carboxylic acid ((S)-1-phenyl-propyl)-amide], on human NK3 receptor [1] (setting [3]), the Ki amounted to 160 nM. The IC50 on human NK3 receptor [2] turned out to be 220 nM.
For `Cc1c(C(=O)N[C@H](c2ccccc2)C2CC2)c2cccc(F)c2c(=O)n1-c1ccccc1` [Example 6c, 8-Fluoro-3-methyl-1-oxo-2-phenyl-1,2-dihydro-isoquinoline-4-carboxylic acid ((S)-cyclopropyl-phenyl-methyl)-amide], in that order: 23 nM and 24 nM.
The matching figures for `O=C(NC(c1cccc(F)c1)C1CC1)c1c(CN2CCC(O)(c3ccncc3)CC2)n(-c2ccccc2)c(=O)c2ccccc12` (centres unmarked) [Example 2hx, 3-(4-Hydroxy-3,4,5,6-tetrahydro-2H-[4,4']bipyridinyl-1-ylmethyl)-1-oxo-2-phenyl-1,2-dihydro-isoquinoline-4-carboxylic acid [cyclopropyl-(3-fluoro-phenyl)-methyl]-amide]: 9.3 nM and 68 nM.
